Experimental data: US20250188085A1, “COMPOSITIONS AND METHODS FOR INHIBITION OF RAS” (THERAS, INC., priority 2022, published 2025)

Experiments:
[1] = target: T1, GTP-loaded KRAS4b (amino acids 1-169) G12C/C118S protein (Homo sapiens, UniProt P01116, C118S/G12C); assay: Covalent cysteine 12 modification by MALDI-TOF MS, GTP-loaded KRAS G12C; type: binding; settings: 15 minutes reaction time point
T1 construct: KRAS4b (amino acids 1-169) G12C/C118S protein; made in house
Experimental: Reaction: 1 μM of GppNHp-, GTP-, or GDP-loaded KRAS4b (amino acids 1-169) G12C/C118S protein (produced in-house by Protein Expression Laboratory, FNLCR/Leidos Biomed) in 20 mM 4-(2-hydroxyethyl)-1-piperazineethanesulfonic acid (HEPES) buffer containing 150 mM NaCl, 1 mM MgCl2, pH 7.3 was prepared freshly before assay. Ten-μL aliquots of protein were dispensed onto low volume 384-well plate, then 375 nL DMSO, and 25 nL of tested compounds from 5 mM DMSO stocks were added to appropriate wells using ECHO 555 acoustic liquid handler (Labcyte Inc.). For each reaction/assay, three blanks were prepared by mixing 10 μL of protein solution with 400 nL DMSO. The contents of the wells were carefully mixed by aspiration, and then each plate was sealed with an adhesive cover, centrifuged at 2000 g for 1 minute, and kept in the dark at room temperature until 5 min, 15 min, 30 min, or 2 h collections.
Target pretreatment: Before each assay MALDI target (Bruker MPT 384 ground steel BC) was pre-treated by pipetting on each spot 0.75 μL of saturated sinapinic acid in acetonitrile (ACN).
Sample preparation: At collection time point, 2 μL of reaction mixtures were pipetted out into 20 μL MALDI matrix solution (saturated solution of sinapinic acid in 1:1 ACN:water solution containing 0.75% trifluoroacetic acid (TFA)) deposited on 384 well polypropylene plate. Resulting solution was mixed by aspiration, centrifuged at 2000 g for 1 minute, then 1 μL aliquots were dispensed on pre-treated MALDI target using Beckman Coulter Biomek FXP 96/384-Span-8 Laboratory Automation Workstation. Finally, the MALDI target was dried under mild vacuum to produce spots with fine crystalline structure.
Measurements: MALDI-TOF measurements were performed on a Bruker Daltonics rapiflex Tissuetyper TOF-TOF mass spectrometer using linear mode and mass range from 18.6 to 21.6 kDa. Detector gain was set to 3.3× (483 V), sample rate to 5 GS/s, real time smoothing to medium (175 MHz), laser smart beam pattern was set to: “MS Thin Layer M5”, and the laser frequency was 10000 Hz. Spectra were automatically collected using custom Auto Xecute method. Laser power was auto adjusted using fuzzy control. The peak selection range was set to be between 19000 and 21500 Da. Peak evaluation uses half width parameter set to be smaller than 40 Da for processed spectrograms (centroid peak detection; smoothed by SavitzkyGolay algorithm using 7 m/z width and 2 cycles; baseline was subtracted using median algorithm with flatness 1 and median level 0.01). Fuzzy control used Proteins/Oligonucleotides protocol with minimum half width 1/10 times above threshold. Up to 40000 satisfactory shots were collected in 10000 shot steps. Dynamic termination was implemented to finish data collection when peak signal/noise ratio was reaching value of 50.
Spectra processing: Spectra were smoothed by SavitzkyGolay algorithm using 7 m/z width and three cycles. Centroid peak detection algorithm was used with signal to noise threshold set to 6, relative intensity threshold 4%, peak width 10 m/z and median baseline subtraction using flatness of 1 and median level of 0.01. Peak intensity and area under the peak were evaluated and recorded for all peaks between 19,300 Da and 21,550 Da.
Calculation of percent modification: Percent modification was calculated as a ratio of peak height for protein modified by compound to sum of peak height of remaining protein plus peak height for protein modified by compound. If multiple modifications were observed each was calculated as a ratio of peak height for given modification versus sum of peak heights for all observed protein species. Data reported in Table 5 are from 15 minutes reaction time point.

[2] = target: T2, GDP-loaded KRAS4b (amino acids 1-169) G12C/C118S protein (Homo sapiens, UniProt P01116, C118S/G12C); assay: Covalent cysteine 12 modification by MALDI-TOF MS, GDP-loaded KRAS G12C; type: binding; settings: 15 minutes reaction time point
T2 construct: KRAS4b (amino acids 1-169) G12C/C118S protein; made in house
Procedure, shortened: (§1)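 KRAS4b 1-169 G12C/C118S loaded with GDP, GppNHp or GTP was used at 1 μM in 20 mM HEPES, 150 mM NaCl, 1 mM MgCl2, pH 7.3, and incubated with compound (5 mM DMSO stock) at room temperature in the dark. % modification at 15 min is adduct peak height over total protein peak heights by linear-mode MALDI-TOF.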

[3] = tested on: pERK in NCI-H358 cells; assay: Cell-based pERK HTRF assay; settings: Homo sapiens, NCI-H358, 0.5 h, 30 min incubation, read-out: pERK in NCI-H358 cell inhibition IC50
Procedure, shortened: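 Cells seeded at 4×10^4/well in RPMI with 10% FBS, then next day treated for 30 min with a 9-point, 3-fold series from 75 μM top concentration at 0.25% DMSO. Lysates were read for pERK by HTRF (d2/Eu cryptate antibodies) after 4–24 h at room temperature, emission at 615 nm.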

[4] = target: T3, GppNHp-loaded KRAS4b (amino acids 1-169) G12C/C118S protein (Homo sapiens, UniProt P01116, C118S/G12C); assay: Covalent cysteine 12 modification by MALDI-TOF MS, GppNHp-loaded KRAS G12C; type: binding; settings: 15 minutes reaction time point
T3 construct: KRAS4b (amino acids 1-169) G12C/C118S protein; made in house
Procedure, shortened: as §1

[5] = target: T4, Avi-KRAS G12C (1-169) GppNHp/RAF1 RBD-3×FLAG (52-151) (Homo sapiens, UniProt P01116, G12C); assay: Raf1 RBD-KRAS G12C-GppNHp disruption (protein:protein interaction HTRF assay); type: biochemical
T4 construct: Avi-KRAS G12C (1-169) GppNHp/RAF1 RBD-3×FLAG (52-151)
Procedure, shortened: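 HTRF measuring disruption of 50 nM Avi-KRAS G12C (1-169) loaded with GppNHp binding RAF1 RBD-3×FLAG (52-151), in pH 7.5 Tris buffer with 5 mM MgCl2, 0.1% BSA, 10% DMSO. KRAS preincubated with compound 1 h, then RBD 1 h, then detection reagents 1 h, all at room temperature. Compound titration 30-0.02 μM; activity expressed as percent of DMSO control.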

| SMILES | GTP-KRAS G12C percent of modification [1] | GDP-KRAS G12C percent of modification [2] | IC50 [3] [nM] | GppNHp-KRAS G12C percent of modification [4] | IC50 [5] [nM] |
| --- | --- | --- | --- | --- | --- |
| C=CC(=O)N1CC[C@@H](Oc2nc(OC[C@@]34CCCN3C[C@H](F)C4)nc3c(F)c(-c4c(F)cc(F)c5sc(N)nc45)ncc23)C1 [Compound 57] | D (percent of modification <10%) | A (percent of modification ≥70%) | 100 to 1000 | C (10%≤modification <50%) | 500 to 5000 |
| C=CC(=O)N1C[C@@H](F)[C@@H](Oc2nc(OC[C@@]34CCCN3C[C@H](F)C4)nc3cc(-c4ccc(F)c5sc(N)nc45)c(C(F)(F)F)cc23)C1 [Compound 58] | B (50≤percent of modification <70%) | A (percent of modification ≥70%) | ≤ 100 | A (percent of modification ≥70%) | ≤ 500 |
| C=CC(=O)N1CC[C@@H](Oc2nc(OC[C@@]34CCCN3C[C@H](F)C4)nc3cc(-c4ccc(F)c5sc(N)nc45)c(C(F)(F)F)cc23)[C@H]1C [Compound 60] | C (10%≤modification <50%) | A (percent of modification ≥70%) | ≤ 100 | B (50≤percent of modification <70%) | ≤ 500 |
| C=CC(=O)N1CCC(Oc2nc(OC[C@@]34CCCN3C[C@H](F)C4)nc3c(F)c(-c4ccc(F)c5sc(N)c(C#N)c45)c(C(F)(F)F)cc23)C1(C)C (some centres unmarked) [Compound 61] | C (10%≤modification <50%) | C (10%≤modification <50%) | ≤ 100 | C (10%≤modification <50%) | ≤ 500 |
| C=CC(=O)N1CC[C@@H](Oc2nc(OC[C@@]34CCCN3C[C@H](F)C4)nc3c(F)c(-c4ccc(F)c5sc(N)c(C#N)c45)c(C(F)(F)F)cc23)[C@H]1C [Compound 62, 4-(4-(((2R,3R)-1-acryloyl-2-methylpyrrolidin-3-yl)oxy)-8-fluoro-2-(((2R,7aS)-2-fluorotetrahydro-1H-pyrrolizin-7a (5H)-yl)methoxy)-6-(trifluoromethyl)quinazolin-7-yl)-2-amino-7-fluorobenzo[b]thiophene-3-carbonitrile] | C (10%≤modification <50%) | B (50≤percent of modification <70%) | ≤ 100 | B (50≤percent of modification <70%) | ≤ 500 |
| C=CC(=O)N1C[C@H](Oc2nc(OC[C@@]34CCCN3C[C@H](F)C4)nc3c(F)c(-c4ccc(F)c5sc(N)c(C#N)c45)c(C(F)(F)F)cc23)[C@@H](F)C1 [Compound 67] | B (50≤percent of modification <70%) | B (50≤percent of modification <70%) | ≤ 100 | B (50≤percent of modification <70%) | ≤ 500 |
| C=CC(=O)N1C[C@H](Oc2nc(OC[C@@]34CCCN3C[C@H](F)C4)nc3c(F)c(-c4ccc(F)c5sc(N)c(C#N)c45)ccc23)C[C@H]1C [Compound 68] | C (10%≤modification <50%) | A (percent of modification ≥70%) | 100 to 1000 | A (percent of modification ≥70%) | ≤ 500 |
| C=CC(=O)N1C[C@@H](F)[C@@H](Oc2nc(OC[C@@]34CCCN3C[C@H](F)C4)nc3c(F)c(-c4ccc(F)c5sc(N)c(C#N)c45)ncc23)C1 [Compound 70] | B (50≤percent of modification <70%) | A (percent of modification ≥70%) | ≤ 100 | A (percent of modification ≥70%) | ≤ 500 |
| C=CC(=O)N1CC[C@@H](Oc2nc(OC[C@@]34CCCN3C[C@H](F)C4)nc3c(F)c(-c4ccc(F)c5sc(N)c(C#N)c45)c(C(F)(F)F)cc23)[C@H]1CF [Compound 71] | D (percent of modification <10%) | C (10%≤modification <50%) | ≤ 100 | C (10%≤modification <50%) | ≤ 500 |

The next lines start with the values.

| GTP-KRAS G12C percent of modification [1] | GDP-KRAS G12C percent of modification [2] | IC50 [3] [nM] | GppNHp-KRAS G12C percent of modification [4] | IC50 [5] [nM] | SMILES |
| --- | --- | --- | --- | --- | --- |
| C (10%≤modification <50%) | A (percent of modification ≥70%) | ≤ 100 | B (50≤percent of modification <70%) | ≤ 500 | C=CC(=O)N1C[C@H](Oc2nc(OC[C@@]34CCCN3C[C@H](F)C4)nc3cc(-c4ccc(F)c5sc(N)nc45)c(C(F)(F)F)cc23)[C@@H](F)C1 [Compound 59] |
| B (50≤percent of modification <70%) | B (50≤percent of modification <70%) | ≤ 100 | A (percent of modification ≥70%) | ≤ 500 | C=CC(=O)N1CC[C@@H](Oc2nc(OC[C@@]34CCCN3C[C@H](F)C4)nc3c(F)c(-c4ccc(F)c5sc(N)c(C#N)c45)c(C(F)(F)F)cc23)[C@H]1CO [Compound 65] |
| C (10%≤modification <50%) | A (percent of modification ≥70%) | ≤ 100 | A (percent of modification ≥70%) | ≤ 500 | C=CC(=O)N1C[C@H](Oc2nc(OC[C@@]34CCCN3C[C@H](F)C4)nc3c(F)c(-c4ccc(F)c5sc(N)nc45)c(C(F)(F)F)cc23)C[C@H]1CO [Compound 66] |
| C (10%≤modification <50%) | A (percent of modification ≥70%) | ≤ 100 | A (percent of modification ≥70%) | ≤ 500 | C=CC(=O)N1C[C@H](Oc2nc(OC[C@@]34CCCN3C[C@H](F)C4)nc3c(F)c(-c4ccc(F)c5sc(N)nc45)c(C(F)(F)F)cc23)C[C@@H]1CO [Compound 69] |
